We go through two compounds from ChEMBL document CHEMBL5653615 (J Biol Chem, 2013).

Test [1] concerns the target T1, TGF-beta receptor type-1 (Homo sapiens) (UniProt P36897).
T1 sequence (whole entry): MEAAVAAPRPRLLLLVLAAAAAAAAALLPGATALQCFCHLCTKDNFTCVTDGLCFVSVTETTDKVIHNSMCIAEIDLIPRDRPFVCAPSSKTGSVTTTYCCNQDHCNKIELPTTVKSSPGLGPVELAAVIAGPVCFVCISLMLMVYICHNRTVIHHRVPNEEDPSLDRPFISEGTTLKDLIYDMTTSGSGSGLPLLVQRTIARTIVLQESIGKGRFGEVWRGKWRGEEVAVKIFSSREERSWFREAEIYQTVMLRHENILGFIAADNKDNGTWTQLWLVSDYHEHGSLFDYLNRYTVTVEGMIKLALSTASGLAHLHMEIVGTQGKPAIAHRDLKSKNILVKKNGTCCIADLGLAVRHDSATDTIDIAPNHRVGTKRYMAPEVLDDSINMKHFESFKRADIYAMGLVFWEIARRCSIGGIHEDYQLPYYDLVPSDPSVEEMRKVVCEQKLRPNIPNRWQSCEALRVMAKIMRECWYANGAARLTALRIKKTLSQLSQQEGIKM
Put plainly: Inhibition of human ALK5 at 18.6 nM by HotSpot assay relative to control.

Test [2] concerns the target Mitogen-activated protein kinase 11 (Homo sapiens) (UniProt Q15759). Put plainly: Inhibition of human MAPK11 at 18.6 nM by HotSpot assay relative to control.
In test [3] the target is Phosphorylase b kinase gamma catalytic chain, skeletal muscle/heart isoform (Homo sapiens) (UniProt Q16816). Put plainly: Inhibition of human PHKg1 at 18.6 nM by HotSpot assay relative to control.
Phosphorylase b kinase gamma catalytic chain, skeletal muscle/heart isoform (Homo sapiens), sequence (Q16816 whole entry, looked up, canonical isoform): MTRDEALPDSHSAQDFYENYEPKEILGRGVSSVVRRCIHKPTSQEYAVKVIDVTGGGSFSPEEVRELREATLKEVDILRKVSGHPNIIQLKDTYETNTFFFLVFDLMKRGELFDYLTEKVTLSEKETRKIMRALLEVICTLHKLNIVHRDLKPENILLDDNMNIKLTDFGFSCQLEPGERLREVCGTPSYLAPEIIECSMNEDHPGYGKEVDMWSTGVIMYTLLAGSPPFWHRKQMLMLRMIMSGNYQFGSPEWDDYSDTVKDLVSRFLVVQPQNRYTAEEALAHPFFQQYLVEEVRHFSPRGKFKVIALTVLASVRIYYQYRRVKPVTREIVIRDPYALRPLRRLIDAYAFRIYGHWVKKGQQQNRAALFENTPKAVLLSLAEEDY
Test [4] concerns the target T2, Dual specificity tyrosine-phosphorylation-regulated kinase 2 (Homo sapiens) (UniProt Q92630).
T2 sequence (whole entry): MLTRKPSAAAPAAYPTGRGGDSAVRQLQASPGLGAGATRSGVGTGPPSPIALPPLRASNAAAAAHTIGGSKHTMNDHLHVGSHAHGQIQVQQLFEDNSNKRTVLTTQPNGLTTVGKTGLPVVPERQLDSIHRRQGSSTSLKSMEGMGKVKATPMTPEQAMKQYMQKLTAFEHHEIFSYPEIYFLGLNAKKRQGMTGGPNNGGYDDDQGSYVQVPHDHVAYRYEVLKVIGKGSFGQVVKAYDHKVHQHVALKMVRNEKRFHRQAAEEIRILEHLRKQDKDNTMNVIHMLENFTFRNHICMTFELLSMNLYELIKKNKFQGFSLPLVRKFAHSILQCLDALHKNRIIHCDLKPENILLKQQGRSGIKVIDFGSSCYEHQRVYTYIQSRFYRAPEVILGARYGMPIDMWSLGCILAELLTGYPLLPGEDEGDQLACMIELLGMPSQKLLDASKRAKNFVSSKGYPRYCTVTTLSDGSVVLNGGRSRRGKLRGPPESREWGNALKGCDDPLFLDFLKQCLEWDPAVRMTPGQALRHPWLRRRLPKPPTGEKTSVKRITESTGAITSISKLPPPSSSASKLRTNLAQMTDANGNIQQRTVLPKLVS
Put plainly: Inhibition of human DYRK2 at 18.6 nM by HotSpot assay relative to control.

The target in test [5] is T3, Mitogen-activated protein kinase 12 (Homo sapiens) (UniProt P53778).
T3 sequence (whole entry): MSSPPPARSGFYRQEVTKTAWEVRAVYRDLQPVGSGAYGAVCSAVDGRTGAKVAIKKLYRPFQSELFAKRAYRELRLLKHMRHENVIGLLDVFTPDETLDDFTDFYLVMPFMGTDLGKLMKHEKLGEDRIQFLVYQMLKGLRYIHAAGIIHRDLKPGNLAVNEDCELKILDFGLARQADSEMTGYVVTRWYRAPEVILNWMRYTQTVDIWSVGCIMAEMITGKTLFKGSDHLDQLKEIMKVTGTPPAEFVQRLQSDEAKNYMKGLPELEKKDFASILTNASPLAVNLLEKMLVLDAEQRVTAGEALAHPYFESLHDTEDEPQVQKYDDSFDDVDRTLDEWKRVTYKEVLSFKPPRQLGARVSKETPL
Put plainly: Inhibition of human P38g at 18.6 nM by HotSpot assay relative to control.

Test [6] addresses Calcium/calmodulin-dependent protein kinase type 1G (Homo sapiens) (UniProt Q96NX5). Put plainly: Inhibition of human CAMK1g at 18.6 nM by HotSpot assay relative to control.
The target of test [7] is Tyrosine-protein kinase Lyn (Homo sapiens) (UniProt P07948). Put plainly: Inhibition of human LYN at 18.6 nM by HotSpot assay relative to control.
Tyrosine-protein kinase Lyn (Homo sapiens), sequence (P07948 2-512 limits assumed): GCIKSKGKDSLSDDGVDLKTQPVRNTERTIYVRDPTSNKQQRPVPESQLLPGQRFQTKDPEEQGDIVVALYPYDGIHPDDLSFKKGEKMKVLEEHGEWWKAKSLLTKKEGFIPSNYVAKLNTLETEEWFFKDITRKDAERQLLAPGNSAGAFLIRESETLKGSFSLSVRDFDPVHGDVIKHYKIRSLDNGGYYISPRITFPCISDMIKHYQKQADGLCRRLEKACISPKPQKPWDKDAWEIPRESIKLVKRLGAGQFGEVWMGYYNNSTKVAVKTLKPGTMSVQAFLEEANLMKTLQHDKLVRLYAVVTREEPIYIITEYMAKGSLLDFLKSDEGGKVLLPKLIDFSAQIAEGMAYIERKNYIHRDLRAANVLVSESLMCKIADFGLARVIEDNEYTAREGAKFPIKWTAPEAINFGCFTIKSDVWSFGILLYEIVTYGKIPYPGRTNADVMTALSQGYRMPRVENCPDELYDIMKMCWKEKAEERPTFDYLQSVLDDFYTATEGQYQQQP
Test [8] deals with T4, Serine/threonine-protein kinase Chk1 (Homo sapiens) (UniProt O14757).
T4 sequence (whole entry): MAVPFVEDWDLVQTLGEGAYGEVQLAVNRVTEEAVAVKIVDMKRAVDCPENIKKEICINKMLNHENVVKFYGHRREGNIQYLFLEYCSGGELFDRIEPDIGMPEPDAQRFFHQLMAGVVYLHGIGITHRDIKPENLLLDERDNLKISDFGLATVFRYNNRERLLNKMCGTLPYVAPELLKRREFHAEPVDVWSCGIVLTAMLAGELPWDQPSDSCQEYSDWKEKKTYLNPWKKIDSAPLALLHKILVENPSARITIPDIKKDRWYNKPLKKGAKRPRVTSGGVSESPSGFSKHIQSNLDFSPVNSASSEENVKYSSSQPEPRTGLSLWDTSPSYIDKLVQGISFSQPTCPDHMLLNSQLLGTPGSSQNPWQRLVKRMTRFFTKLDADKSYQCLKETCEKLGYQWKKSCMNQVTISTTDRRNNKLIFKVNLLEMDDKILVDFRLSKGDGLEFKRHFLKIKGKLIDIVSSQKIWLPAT
Put plainly: Inhibition of human CHK1 at 18.6 nM by HotSpot assay relative to control.

Test [9] concerns the target Maternal embryonic leucine zipper kinase (Homo sapiens) (UniProt Q14680). Put plainly: Inhibition of human MELK at 1.82 nM by HotSpot assay relative to control.
The target in test [10] is Casein kinase II subunit alpha' (Homo sapiens) (UniProt P19784). Put plainly: Inhibition of human CK2a2 at 1.82 nM by HotSpot assay relative to control.
Casein kinase II subunit alpha' (Homo sapiens), sequence (P19784 whole entry, looked up): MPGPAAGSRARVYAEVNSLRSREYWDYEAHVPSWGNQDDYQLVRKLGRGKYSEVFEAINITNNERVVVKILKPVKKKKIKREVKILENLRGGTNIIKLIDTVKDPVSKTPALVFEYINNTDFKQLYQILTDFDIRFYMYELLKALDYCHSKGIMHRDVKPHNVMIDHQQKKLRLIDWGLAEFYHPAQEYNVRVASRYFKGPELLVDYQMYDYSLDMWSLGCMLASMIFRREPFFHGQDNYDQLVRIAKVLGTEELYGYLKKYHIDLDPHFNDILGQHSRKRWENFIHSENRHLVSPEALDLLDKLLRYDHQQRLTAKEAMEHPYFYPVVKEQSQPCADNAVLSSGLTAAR
Test [11] deals with Proto-oncogene tyrosine-protein kinase ROS (Homo sapiens) (UniProt P08922). Put plainly: Inhibition of human ROS1 at 1.82 nM by HotSpot assay relative to control.
Proto-oncogene tyrosine-protein kinase ROS (Homo sapiens), sequence (P08922 whole entry): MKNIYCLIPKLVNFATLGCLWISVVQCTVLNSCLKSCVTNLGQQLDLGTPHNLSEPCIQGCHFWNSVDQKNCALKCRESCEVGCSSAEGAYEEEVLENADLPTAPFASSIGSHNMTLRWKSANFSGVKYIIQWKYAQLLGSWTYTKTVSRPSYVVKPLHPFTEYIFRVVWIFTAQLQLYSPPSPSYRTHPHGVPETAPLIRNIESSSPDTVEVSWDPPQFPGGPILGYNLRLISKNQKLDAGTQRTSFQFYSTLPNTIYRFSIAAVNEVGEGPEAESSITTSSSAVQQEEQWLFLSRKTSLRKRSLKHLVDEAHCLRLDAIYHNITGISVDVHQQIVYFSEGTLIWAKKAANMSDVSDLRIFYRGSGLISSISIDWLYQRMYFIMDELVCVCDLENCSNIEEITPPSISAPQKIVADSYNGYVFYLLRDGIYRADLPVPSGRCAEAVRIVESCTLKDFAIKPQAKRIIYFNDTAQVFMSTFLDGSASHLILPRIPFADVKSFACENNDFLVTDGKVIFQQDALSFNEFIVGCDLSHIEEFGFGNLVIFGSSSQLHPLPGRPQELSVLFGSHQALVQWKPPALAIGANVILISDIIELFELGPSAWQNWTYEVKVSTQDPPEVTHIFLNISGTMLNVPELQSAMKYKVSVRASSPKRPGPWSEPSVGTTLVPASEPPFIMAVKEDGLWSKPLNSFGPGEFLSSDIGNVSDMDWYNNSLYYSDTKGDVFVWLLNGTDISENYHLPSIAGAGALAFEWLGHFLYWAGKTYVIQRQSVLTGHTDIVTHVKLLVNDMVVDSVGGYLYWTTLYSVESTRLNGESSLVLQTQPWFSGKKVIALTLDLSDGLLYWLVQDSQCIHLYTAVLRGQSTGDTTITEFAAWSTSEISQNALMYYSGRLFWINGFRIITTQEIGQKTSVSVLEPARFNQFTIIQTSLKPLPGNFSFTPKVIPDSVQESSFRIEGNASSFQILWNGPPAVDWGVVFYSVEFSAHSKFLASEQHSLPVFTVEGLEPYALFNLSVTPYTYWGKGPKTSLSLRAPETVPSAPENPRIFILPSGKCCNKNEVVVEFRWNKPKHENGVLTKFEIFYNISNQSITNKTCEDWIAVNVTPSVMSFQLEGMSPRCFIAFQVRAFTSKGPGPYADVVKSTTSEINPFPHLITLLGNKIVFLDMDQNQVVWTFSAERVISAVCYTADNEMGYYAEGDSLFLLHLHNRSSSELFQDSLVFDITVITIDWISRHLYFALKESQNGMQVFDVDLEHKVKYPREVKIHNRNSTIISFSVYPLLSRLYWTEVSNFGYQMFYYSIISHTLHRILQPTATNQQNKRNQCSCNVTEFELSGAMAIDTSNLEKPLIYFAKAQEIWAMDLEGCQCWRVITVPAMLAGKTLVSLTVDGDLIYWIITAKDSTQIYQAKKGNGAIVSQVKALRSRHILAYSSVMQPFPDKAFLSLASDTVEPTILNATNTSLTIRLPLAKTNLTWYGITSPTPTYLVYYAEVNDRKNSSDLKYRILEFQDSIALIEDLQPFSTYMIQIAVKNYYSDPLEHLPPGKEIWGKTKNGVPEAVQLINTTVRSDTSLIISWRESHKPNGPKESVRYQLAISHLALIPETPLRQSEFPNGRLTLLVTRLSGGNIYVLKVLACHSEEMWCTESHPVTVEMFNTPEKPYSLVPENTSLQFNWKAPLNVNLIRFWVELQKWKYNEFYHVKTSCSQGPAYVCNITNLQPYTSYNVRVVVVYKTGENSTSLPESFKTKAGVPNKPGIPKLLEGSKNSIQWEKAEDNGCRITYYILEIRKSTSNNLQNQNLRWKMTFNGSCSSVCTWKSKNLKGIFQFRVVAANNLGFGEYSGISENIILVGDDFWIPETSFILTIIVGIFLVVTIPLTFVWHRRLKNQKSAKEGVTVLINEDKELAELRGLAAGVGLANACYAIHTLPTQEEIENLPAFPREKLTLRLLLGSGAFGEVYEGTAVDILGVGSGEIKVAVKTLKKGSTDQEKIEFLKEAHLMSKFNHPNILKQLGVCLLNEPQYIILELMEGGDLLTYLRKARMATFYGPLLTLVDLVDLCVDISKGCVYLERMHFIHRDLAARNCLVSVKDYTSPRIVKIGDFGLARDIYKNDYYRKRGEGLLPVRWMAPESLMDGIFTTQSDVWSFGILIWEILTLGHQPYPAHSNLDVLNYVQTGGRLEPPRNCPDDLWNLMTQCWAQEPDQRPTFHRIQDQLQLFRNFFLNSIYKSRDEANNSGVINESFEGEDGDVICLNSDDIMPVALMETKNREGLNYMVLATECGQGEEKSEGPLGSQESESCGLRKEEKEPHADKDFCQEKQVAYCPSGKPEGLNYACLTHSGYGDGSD

Molecules are shown by their SMILES.

Maternal embryonic leucine zipper kinase (Homo sapiens), sequence (Q14680 whole entry, looked up): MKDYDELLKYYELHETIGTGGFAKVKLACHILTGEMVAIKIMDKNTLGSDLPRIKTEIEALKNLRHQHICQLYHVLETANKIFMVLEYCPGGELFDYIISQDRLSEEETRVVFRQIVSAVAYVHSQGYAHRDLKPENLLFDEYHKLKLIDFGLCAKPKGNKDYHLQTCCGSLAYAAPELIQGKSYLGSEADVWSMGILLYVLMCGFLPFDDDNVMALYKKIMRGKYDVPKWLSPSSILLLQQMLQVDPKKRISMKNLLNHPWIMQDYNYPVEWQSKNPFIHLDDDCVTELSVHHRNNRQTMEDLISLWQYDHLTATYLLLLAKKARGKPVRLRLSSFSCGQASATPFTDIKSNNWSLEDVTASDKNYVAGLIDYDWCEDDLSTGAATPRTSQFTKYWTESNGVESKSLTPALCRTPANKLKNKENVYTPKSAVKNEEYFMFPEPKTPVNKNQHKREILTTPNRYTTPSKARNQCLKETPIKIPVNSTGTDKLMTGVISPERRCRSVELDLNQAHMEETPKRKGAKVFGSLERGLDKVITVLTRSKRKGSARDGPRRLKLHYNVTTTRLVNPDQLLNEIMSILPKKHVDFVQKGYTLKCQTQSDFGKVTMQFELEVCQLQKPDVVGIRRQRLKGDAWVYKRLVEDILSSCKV
Calcium/calmodulin-dependent protein kinase type 1G (Homo sapiens), sequence (Q96NX5 whole entry): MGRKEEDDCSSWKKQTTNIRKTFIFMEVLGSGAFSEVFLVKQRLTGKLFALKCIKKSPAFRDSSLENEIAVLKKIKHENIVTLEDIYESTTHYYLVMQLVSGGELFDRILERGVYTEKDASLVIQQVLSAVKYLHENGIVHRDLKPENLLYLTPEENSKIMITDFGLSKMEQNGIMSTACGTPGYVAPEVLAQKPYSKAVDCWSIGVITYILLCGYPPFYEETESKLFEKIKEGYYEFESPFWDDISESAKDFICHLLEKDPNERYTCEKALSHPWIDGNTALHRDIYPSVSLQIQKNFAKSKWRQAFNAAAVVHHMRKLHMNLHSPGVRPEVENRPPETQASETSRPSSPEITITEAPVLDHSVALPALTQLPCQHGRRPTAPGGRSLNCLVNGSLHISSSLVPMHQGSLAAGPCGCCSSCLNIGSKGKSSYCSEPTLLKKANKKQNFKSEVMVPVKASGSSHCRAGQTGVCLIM

Take `C[C@]1(O)C[C@@H](c2nc(-c3ccc4ccc(-c5ccccc5)nc4c3)c3c(N)nccn32)C1`: the inhibition was 2.47% in test [1]; -4.21% in [2]; 6.05% in [3]; -1.48% in test [4]; -7.84% in test [5]; 6.69% in test [6]. The inhibition was -0.99% in test [7] and -5.11% in [8].

With `C[C@@]1(C(=O)Nc2ccc(F)nc2)CCCN1c1nc(Nc2cc(C3CC3)n[nH]2)c2cccn2n1`, the inhibition in [9] came to 1.63%; in test [10] it was 11.7%; in [11], 73.5%.
